US10654816B2, “Compounds and compositions for treating conditions associated with NLRP activity” (NOVARTIS INFLAMMASOME RESEARCH, INC., priority 2017, dated 2020)
Like-named read-outs stand apart in the source and are kept apart here. Blank lines part the entries; values can stand above or below the compound they belong to.

System: IL-1β production in PMA-differentiated THP-1 cells
Test: IL-1β production in PMA-differentiated THP-1 cells stimulated with gramicidin (hTHP-1 assay, HTRF readout; Procedures 1-3)
Type: cell-based, human
Conditions: average, read-out: hTHP-1 IC50 (Average IC50 of compounds in hTHP-1 assay)
Protocol: The Following Protocol is Suitable for Testing the Activity of the Compounds Disclosed Herein. Procedure 1: IL-1B Production in PMA-Differentiated THP-1 Cells Stimulated with Gramicidin.
THP-1 cells were purchased from the American Type Culture Collection and sub-cultured according to instructions from the supplier. Cells were cultured in complete RPMI 1640 (containing 10% heat inactivated FBS, penicillin (100 units/ml) and streptomycin (100 μg/ml)), and maintained in log phase prior to experimental setup. Prior to the experiment, compounds were dissolved in dimethyl sulfoxide (DMSO) to generate a 30 mM stock. The compound stock was first pre-diluted in DMSO to 3, 0.34, 0.042 and 0.0083 mM intermediate concentrations and subsequently spotted using Echo550 liquid handler into an empty 384-well assay plate to achieve desired final concentration (e.g. 100, 33, 11, 3.7, 1.2, 0.41, 0.14, 0.046, 0.015, 0.0051, 0.0017 μM). DMSO was backfilled in the plate to achieve a final DMSO assay concentration of 0.37%. The plate was then sealed and stored at room temperature until required.
THP-1 cells were treated with PMA (Phorbol 12-myristate 13-acetate) (20 ng/ml) for 16-18 hours. On the day of the experiment the media was removed and adherent cells were detached with trypsin for 5 minutes. Cells were then harvested, washed with complete RPMI 1640, spun down, and resuspended in RPMI 1640 (containing 2% heat inactivated FBS, penicillin (100 units/ml) and streptomycin (100 μg/ml). The cells were plated in the 384-well assay plate containing the spotted compounds at a density of 50,000 cells/well (final assay volume 50 μl). Cells were incubated with compounds for 1 hour and then stimulated with gramicidin (5 μM) (Enzo) for 2 hours. Plates were then centrifuged at 340 g for 5 min. Cell free supernatant (40 μL) was collected using a 96-channel PlateMaster (Gilson) and the production of IL-1β was evaluated by HTRF (cisbio). The plates were incubated for 18 h at 4° C. and read using the preset HTRF program (donor emission at 620 nm, acceptor emission at 668 nm) of the SpectraMax i3x spectrophotometer (Molecular Devices, software SoftMax 6). A vehicle only control and a dose titration of CRID3 (100-0.0017 μM) were run concurrently with each experiment.
Procedure 2: IL-1β Production in PMA-Differentiated THP-1 Cells Stimulated with Gramicidin.
THP-1 cells were purchased from the American Type Culture Collection and sub-cultured according to instructions from the supplier. Prior to experiments, cells were cultured in complete RPMI 1640 (containing 10% heat inactivated FBS, penicillin (100 units/ml) and streptomycin (100 μg/ml)), and maintained in log phase prior to experimental setup. Prior to the experiment THP-1 were treated with PMA (Phorbol 12-myristate 13-acetate) (20 ng/ml) for 16-18 hours. Compounds were dissolved in dimethyl sulfoxide (DMSO) to generate a 30 mM stock.
On the day of the experiment the media was removed and adherent cells were detached with trypsin for 5 minutes. Cells were then harvested, washed with complete RPMI 1640, spun down, resuspended in RPMI 1640 (containing 2% heat inactivated FBS, penicillin (100 units/ml) and streptomycin (100 μg/ml). The cells were plated in a 384-well plate at a density of 50,000 cells/well (final assay volume 50 μl). Compounds were first dissolved in assay medium to obtain a 5× top concentration of 500 μM. 10 step dilutions (1:3) were then undertaken in assay medium containing 1.67% DMSO. 5× compound solutions were added to the culture medium to achieve desired final concentration (e.g. 100, 33, 11, 3.7, 1.2, 0.41, 0.14, 0.046, 0.015, 0.0051, 0.0017 μM). Final DMSO concentration was at 0.37%. Cells were incubated with compounds for 1 hour and then stimulated with gramicidin (5 μM) (Enzo) for 2 hours. Plates were then centrifuged at 340 g for 5 min. Cell free supernatant (40 μL) was collected using a 96-channel PlateMaster (Gilson) and the production of IL-1β was evaluated by HTRF (cisbio). […]

[1] = Homo sapiens, THP-1, hTHP-1 assay containing 2% fetal bovine serum, given as bound
[2] = Homo sapiens, THP-1, hTHP-1 assay containing 2% fetal bovine serum, class symbols
[3] = hTHP-1 assay containing 2% fetal bovine serum, class symbols

Compound: CC(C)c1cc(C#N)cc(C(C)C)c1NC(=O)N=S(N)(=O)c1sc(C(C)(C)O)nc1CO (single isomer, unassigned) [Example 193, (R)- or (S)-N′-((4-cyano-2,6-diisopropylphenyl)carbamoyl)-4-(hydroxymethyl)-2-(2-hydroxypropan-2-yl)thiazole-5-sulfonimidamide]
IC50 [1]: > 30 µM

Compound: CC(C)c1cc(C#N)cc(C(C)C)c1NC(=O)N=S(N)(=O)c1ccc(S(C)(=O)=O)cc1 (single isomer, unassigned) [Example 196, (S)- or (R)-N′-((4-cyano-2,6-diisopropylphenyl)carbamoyl)-4-(methylsulfonyl)-benzenesulfonimidamide]
IC50 [2]: 5 to 30 µM

Compound: CC(C)c1cc(C#N)cc(C(C)C)c1NC(=O)N=S(N)(=O)c1ccc(S(C)(=O)=O)cc1 (single isomer, unassigned) [Example 197, (R)- or (S)-N′-((4-cyano-2,6-diisopropylphenyl)carbamoyl)-4-(methyl-sulfonyl)benzenesulfonimidamide]
IC50 [1]: > 30 µM

Compound: CC(C)c1cc(C#N)cc(C(C)C)c1NC(=O)N=S(N)(=O)c1cc(C(C)(C)O)cc(C(C)(C)O)c1 (single isomer, unassigned) [Example 198, N′-((4-cyano-2,6-diisopropylphenyl)carbamoyl)-3,5-bis-(2-hydroxypropan-2-yl)benzenesulfonimidamide]
IC50 [2]: 5 to 30 µM

Compound: CC(C)c1cc(C#N)cc(C(C)C)c1NC(=O)N=S(N)(=O)c1cc(C(C)(C)O)cc(C(C)(C)O)c1 (single isomer, unassigned) [Example 199, N′-((4-cyano-2,6-diisopropylphenyl)carbamoyl)-3,5-bis-(2-hydroxypropan-2-yl)benzenesulfonimidamide]
IC50 [1]: > 30 µM

Compound: CC(C)(O)c1ncc([S@](N)(=O)=NC(=O)Nc2c3c(cc4c2CC4)CCC3)s1 (single isomer, unassigned) [Example 224]
IC50 [3]: 0.008 to 0.04 µM

Compound: CC(C)(O)c1ncc([S@@](N)(=O)=NC(=O)Nc2c3c(cc4c2CC4)CCC3)s1 (single isomer, unassigned) [Example 225]
IC50 [3]: 1 to 5 µM

Compound: C#CCCC(=O)N(C)Cc1ccc(S(N)(=O)=NC(=O)Nc2c3c(cc4c2CCC4)CCC3)cc1 (single isomer, unassigned) [Example 312, (S) or (R)-N-(4-(N′-((1,2,3,5,6,7-hexahydro-s-indacen-4-yl)carbamoyl)sulfamid-imidoyl)benzyl)-N-methylpent-4-ynamide]
IC50 [2]: 1 to 5 µM

Compound: C#CCCC(=O)N(C)Cc1ccc(S(N)(=O)=NC(=O)Nc2c3c(cc4c2CCC4)CCC3)cc1 (single isomer, unassigned) [Example 313, (R) or (S)-N-(4-(N′-((1,2,3,5,6,7-hexahydro-s-indacen-4-yl)carbamoyl)sulfamid-imidoyl)benzyl)-N-methylpent-4-ynamide]
IC50 [3]: 1 to 5 µM

Compound: CCc1ccc2cn[nH]c2c1NC(=O)N=S(N)(=O)c1cnc(C(C)(C)O)s1 (single isomer, unassigned) [Example 325, (S) or (R)-N′-((6-ethyl-1H-indazol-7-yl)carbamoyl)-2-(2-hydroxypropan-2-yl)thiazole-5-sulfonimidamide]
IC50 (Homo sapiens, THP-1, hTHP-1 assay containing 2% fetal bovine serum, numeric bound printed without unit): > 28.4 µM

Compound: CCc1ccc2cn[nH]c2c1NC(=O)N=S(N)(=O)c1cnc(C(C)(C)O)s1 (single isomer, unassigned) [Example 326, (R) or (S)-N′-((6-ethyl-1H-indazol-7-yl)carbamoyl)-2-(2-hydroxypropan-2-yl)thiazole-5-sulfonimidamide]
IC50 [2]: 5 to 30 µM

Compound: CCc1ccc2cnn(C)c2c1NC(=O)N=S(N)(=O)c1ncc(C(C)(C)O)s1 (single isomer, unassigned) [Example 327, (S) or (R)-N′-((6-ethyl-1-methyl-1H-indazol-7-yl)carbamoyl)-5-(2-hydroxypropan-2-yl)thiazole-2-sulfonimidamide]
IC50 [1]: > 30 µM

Compound: CCc1ccc2cnn(C)c2c1NC(=O)N=S(N)(=O)c1ncc(C(C)(C)O)s1 (single isomer, unassigned) [Example 328, (R) or (S)-N′-((6-ethyl-1-methyl-1H-indazol-7-yl)carbamoyl)-5-(2-hydroxypropan-2-yl)thiazole-2-sulfonimidamide]
IC50 [2]: 1 to 5 µM

Second part, the compound after the results:

IC50 [1]: > 30 µM
Compound: CCc1ccc2cn(C)nc2c1NC(=O)N=S(N)(=O)c1ncc(C(C)(C)O)s1 (single isomer, unassigned) [Example 329, (S) or (R)-N′-((6-ethyl-2-methyl-2H-indazol-7-yl)carbamoyl)-5-(2-hydroxypropan-2-yl)thiazole-2-sulfonimidamide]

IC50 (hTHP-1 assay containing 2% fetal bovine serum, given as bound): > 30 µM
Compound: CCc1ccc2cn(C)nc2c1NC(=O)N=S(N)(=O)c1ncc(C(C)(C)O)s1 (single isomer, unassigned) [Example 330, (R) or (S)-N′-((6-ethyl-2-methyl-2H-indazol-7-yl)carbamoyl)-5-(2-hydroxypropan-2-yl)thiazole-2-sulfonimidamide]

IC50 [2]: 1 to 5 µM
Compound: CC(C)(O)c1ncc(S(N)(=O)=NC(=O)Nc2c3c(cc4c2CCC4O)CCC3)s1 (single isomer, unassigned) [Example 337, (R, R) or (R, S)-N′-((l-hydroxy-1,2,3,5,6,7-hexahydro-s-indacen-4-yl)carbamoyl)-2-(2-hydroxypropan-2-yl)thiazole-5-sulfonimidamide]

IC50 [3]: 1 to 5 µM
Compound: CC(C)(O)c1ncc(S(N)(=O)=NC(=O)Nc2c3c(cc4c2CCC4O)CCC3)s1 (single isomer, unassigned) [Example 338, (R, S) or (R, R)-N′-((1-hydroxy-1,2,3,5,6,7-hexahydro-s-indacen-4-yl)carbamoyl)-2-(2-hydroxypropan-2-yl)thiazole-5-sulfonimidamide]

IC50 [3]: 1 to 5 µM
Compound: CC(C)(O)c1ncc(S(N)(=O)=NC(=O)Nc2c3c(cc4c2CCC4O)CCC3)s1 (single isomer, unassigned) [Example 339, (S, S) or (S, R)-N′-((l-hydroxy-1,2,3,5,6,7-hexahydro-s-indacen-4-yl)carbamoyl)-2-(2-hydroxypropan-2-yl)thiazole-5-sulfonimidamide]

IC50 [3]: 1 to 5 µM
Compound: CC(C)(O)c1ncc(S(N)(=O)=NC(=O)Nc2c3c(cc4c2CCC4O)CCC3)s1 (single isomer, unassigned) [Example 340, (S, R) or (S, S)-N′-((1-hydroxy-1,2,3,5,6,7-hexahydro-s-indacen-4-yl)carbamoyl)-2-(2-hydroxypropan-2-yl)thiazole-5-sulfonimidamide]

IC50 [2]: 5 to 30 µM
Compound: CN(C)S(=O)(=NC(=O)Nc1c2c(cc3c1CCC3)CCC2)c1cc(C(C)(C)O)cs1 (single isomer, unassigned) [Example 357, (R) or (S)-N′-((1,2,3,5,6,7-hexahydro-s-indacen-4-yl)carbamoyl)-4-(2-hydroxypropan-2-yl)-N,N-dimethylthiophene-2-sulfonimidamide]

IC50 [1]: > 30 µM
Compound: CN(C)S(=O)(=NC(=O)Nc1c2c(cc3c1CCC3)CCC2)c1cc(C(C)(C)O)cs1 (single isomer, unassigned) [Example 358, (S) or (R) -N′-((1,2,3,5,6,7-hexahydro-s-indacen-4-yl)carbamoyl)-4-(2-hydroxypropan-2-yl)-N,N-dimethylthiophene-2-sulfonimidamide]
